Laboratory results from a compilation of properties of binary mixtures (doi:10.1016/j.fluid.2015.06.043).

Experiment: xn = mol fraction of the nth substance listed
Conditions: 101 kPa

O + CC[n+]1ccccc1.O=S(=O)([O-])C(F)(F)F
x2 = 0
Conditions	viscosity [mPa·s]
298.15 K	0.89
303.15 K	0.8
313.15 K	0.65
333.15 K	0.47
343.15 K	0.4

CC[n+]1ccccc1.O=S(=O)([N-]S(=O)(=O)C(F)(F)F)C(F)(F)F + O
viscosity [mPa·s]
Conditions	283.15 K	293.15 K	298.15 K	303.15 K	313.15 K	333.15 K	343.15 K	353.15 K
x2 = 0.0043	78.6	49.9	40.1	33.3	24	13.7	10.88	–
x2 = 0.087	64.3	41.7	–	28.4	20.6	12.15	–	7.92

CC[n+]1ccccc1.O=S(=O)([O-])C(F)(F)F + O
viscosity [mPa·s]
Conditions	293.15 K	298.15 K	303.15 K	313.15 K	323.15 K	333.15 K	343.15 K	353.15 K
x1 = 0.067	–	–	1.9	1.5	1.22	1.02	–	–
x1 = 0.183	5.3	4.6	4.03	3.16	2.55	2.1	1.76	–
x1 = 0.498	17.7	–	13	9.96	7.86	6.34	5.24	4.41
x1 = 0.689	33.4	27.8	23.5	–	13.26	10.46	–	6.92
x1 = 0.893	65.7	53.2	43.7	30.8	22.5	17.1	13.4	–
x1 = 1	75.2	60.6	48.8	33.8	24.5	18.2	14.05	11.13
